{"source": "PubChem BioAssay AID2060892", "about": "(Molecular Pharmacology Branch, DTP, NCI, 2025)", "tested_on": "HOP-62 complex spheroids with HUVEC/MSC, viability", "test": "Anticancer human tumor HOP-62 cell line growth inhibition [RAS];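 as to all read-outs here: spheroids exposed to agents for seven days before readout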;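 as to viability, T/C: 100% = DMSO vehicle control viability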", "conditions": "for IC50: curve of first compound; for viability, T/C: stronger effect = lower value", "how_it_was_run": "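Tumour cells grown as complex spheroids with HUVEC endothelial cells and mesenchymal stem cells, treated with RAS pathway inhibitor combinations. Each agent spans half-log steps from near clinical Cmax, or 10 microM where Cmax is unknown.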", "data": [{"smiles": "CC(C)NCC(C(=O)N1CCN(c2ncnc3c2C(C)CC3O)CC1)c1ccc(Cl)cc1", "note": "(stereo unspecified) + CCn1c(-c2cccnc2C(C)OC)c2c3cc(ccc31)N1CCOC(CC(NC(=O)C(C(C)C)N(C)C(=O)C3(F)CCN(C(=O)C#CC(C)(C)N(C)C)CC3)C(=O)N3CCCC(N3)C(=O)OCC(C)(C)C2)C1", "values": [{"measurement": "IC50", "setting": "second compound 0.000949 µM", "value": 3570, "unit": "nM"}, {"measurement": "IC50", "setting": "second compound 0.003 µM", "value": 2210, "unit": "nM"}, {"measurement": "IC50", "setting": "second compound 0.00949 µM", "value": 1650, "unit": "nM"}, {"measurement": "IC50", "setting": "second compound 0.03 µM", "value": 1120, "unit": "nM"}, {"measurement": "IC50", "setting": "second compound 0.0949 µM", "value": 1170, "unit": "nM"}, {"measurement": "IC50", "setting": "second compound 0.3 µM", "value": 742, "unit": "nM"}, {"measurement": "viability, T/C", "setting": "second compound 0.000949 µM, first compound 0.0316 µM", "value": 98.8, "unit": "%"}, {"measurement": "viability, T/C", "setting": "second compound 0.000949 µM, first compound 0.1 µM", "value": 119, "unit": "%"}, {"measurement": "viability, T/C", "setting": "second compound 0.000949 µM, first compound 0.316 µM", "value": 65.4, "unit": "%"}, {"measurement": "viability, T/C", "setting": "second compound 0.000949 µM, first compound 1 µM", "value": 76.4, "unit": "%"}, {"measurement": "viability, T/C", "setting": "second compound 0.000949 µM, first compound 3.16 µM", "value": 61.6, "unit": "%"}, {"measurement": "viability, T/C", "setting": "second compound 0.000949 µM, first compound 10 µM", "value": 20.3, "unit": "%"}, {"measurement": "viability, T/C", "setting": "second compound 0.003 µM, first compound 0.0316 µM", "value": 101, "unit": "%"}, {"measurement": "viability, T/C", "setting": "second compound 0.003 µM, first compound 0.1 µM", "value": 105, "unit": "%"}, {"measurement": "viability, T/C", "setting": "second compound 0.003 µM, first compound 0.316 µM", "value": 65.3, "unit": "%"}, {"measurement": "viability, T/C", "setting": "second compound 0.003 µM, first compound 1 µM", "value": 67.7, "unit": "%"}, {"measurement": "viability, T/C", "setting": "second compound 0.003 µM, first compound 3.16 µM", "value": 47.1, "unit": "%"}, {"measurement": "viability, T/C", "setting": "second compound 0.003 µM, first compound 10 µM", "value": 21.2, "unit": "%"}, {"measurement": "viability, T/C", "setting": "second compound 0.00949 µM, first compound 0.0316 µM", "value": 81.7, "unit": "%"}, {"measurement": "viability, T/C", "setting": "second compound 0.00949 µM, first compound 0.1 µM", "value": 100, "unit": "%"}, {"measurement": "viability, T/C", "setting": "second compound 0.00949 µM, first compound 0.316 µM", "value": 80.1, "unit": "%"}, {"measurement": "viability, T/C", "setting": "second compound 0.00949 µM, first compound 1 µM", "value": 58.9, "unit": "%"}, {"measurement": "viability, T/C", "setting": "second compound 0.00949 µM, first compound 3.16 µM", "value": 38.5, "unit": "%"}, {"measurement": "viability, T/C", "setting": "second compound 0.00949 µM, first compound 10 µM", "value": 22, "unit": "%"}, {"measurement": "viability, T/C", "setting": "second compound 0.03 µM, first compound 0.0316 µM", "value": 122, "unit": "%"}, {"measurement": "viability, T/C", "setting": "second compound 0.03 µM, first compound 0.1 µM", "value": 83.4, "unit": "%"}, {"measurement": "viability, T/C", "setting": "second compound 0.03 µM, first compound 0.316 µM", "value": 72, "unit": "%"}, {"measurement": "viability, T/C", "setting": "second compound 0.03 µM, first compound 1 µM", "value": 61.8, "unit": "%"}, {"measurement": "viability, T/C", "setting": "second compound 0.03 µM, first compound 3.16 µM", "value": 28.3, "unit": "%"}, {"measurement": "viability, T/C", "setting": "second compound 0.03 µM, first compound 10 µM", "value": 23, "unit": "%"}, {"measurement": "viability, T/C", "setting": "second compound 0.0949 µM, first compound 0.0316 µM", "value": 79, "unit": "%"}, {"measurement": "viability, T/C", "setting": "second compound 0.0949 µM, first compound 0.1 µM", "value": 80.4, "unit": "%"}, {"measurement": "viability, T/C", "setting": "second compound 0.0949 µM, first compound 0.316 µM", "value": 69, "unit": "%"}, {"measurement": "viability, T/C", "setting": "second compound 0.0949 µM, first compound 1 µM", "value": 56.2, "unit": "%"}, {"measurement": "viability, T/C", "setting": "second compound 0.0949 µM, first compound 3.16 µM", "value": 25.5, "unit": "%"}, {"measurement": "viability, T/C", "setting": "second compound 0.0949 µM, first compound 10 µM", "value": 21.1, "unit": "%"}, {"measurement": "viability, T/C", "setting": "second compound 0.3 µM, first compound 0.0316 µM", "value": 73.2, "unit": "%"}, {"measurement": "viability, T/C", "setting": "second compound 0.3 µM, first compound 0.1 µM", "value": 78.9, "unit": "%"}, {"measurement": "viability, T/C", "setting": "second compound 0.3 µM, first compound 0.316 µM", "value": 59.3, "unit": "%"}, {"measurement": "viability, T/C", "setting": "second compound 0.3 µM, first compound 1 µM", "value": 47, "unit": "%"}, {"measurement": "viability, T/C", "setting": "second compound 0.3 µM, first compound 3.16 µM", "value": 26.4, "unit": "%"}, {"measurement": "viability, T/C", "setting": "second compound 0.3 µM, first compound 10 µM", "value": 16.6, "unit": "%"}]}, {"smiles": "C=CC(=O)N1CCN(c2nc(OCC3CCCN3C)nc3c(F)c(-c4nc(N)cc(C)c4C(F)(F)F)c(Cl)cc23)C(C)C1", "note": "(stereo unspecified) + C#Cc1c(F)ccc2cc(O)cc(-c3ncc4c(N5CC6CCC(C5)N6)nc(OCC56CCCN5CC(F)C6)nc4c3F)c12", "values": [{"measurement": "IC50", "setting": "second compound 0.0316 µM", "value": "> 1000", "unit": "nM"}, {"measurement": "IC50", "setting": "second compound 0.1 µM", "value": "> 1000", "unit": "nM"}, {"measurement": "IC50", "setting": "second compound 0.316 µM", "value": "> 1000", "unit": "nM"}, {"measurement": "IC50", "setting": "second compound 1 µM", "value": "> 1000", "unit": "nM"}, {"measurement": "IC50", "setting": "second compound 3.16 µM", "value": "> 1000", "unit": "nM"}, {"measurement": "IC50", "setting": "second compound 10 µM", "value": "< 3.16", "unit": "nM"}, {"measurement": "viability, T/C", "setting": "second compound 0.0316 µM, first compound 0.00316 µM", "value": 79.5, "unit": "%"}, {"measurement": "viability, T/C", "setting": "second compound 0.0316 µM, first compound 0.01 µM", "value": 71.2, "unit": "%"}, {"measurement": "viability, T/C", "setting": "second compound 0.0316 µM, first compound 0.0316 µM", "value": 65.5, "unit": "%"}, {"measurement": "viability, T/C", "setting": "second compound 0.0316 µM, first compound 0.1 µM", "value": 68.2, "unit": "%"}, {"measurement": "viability, T/C", "setting": "second compound 0.0316 µM, first compound 0.316 µM", "value": 70.6, "unit": "%"}, {"measurement": "viability, T/C", "setting": "second compound 0.0316 µM, first compound 1 µM", "value": 62.1, "unit": "%"}, {"measurement": "viability, T/C", "setting": "second compound 0.1 µM, first compound 0.00316 µM", "value": 86.7, "unit": "%"}, {"measurement": "viability, T/C", "setting": "second compound 0.1 µM, first compound 0.01 µM", "value": 69.3, "unit": "%"}, {"measurement": "viability, T/C", "setting": "second compound 0.1 µM, first compound 0.0316 µM", "value": 63.2, "unit": "%"}, {"measurement": "viability, T/C", "setting": "second compound 0.1 µM, first compound 0.1 µM", "value": 64.7, "unit": "%"}, {"measurement": "viability, T/C", "setting": "second compound 0.1 µM, first compound 0.316 µM", "value": 69.1, "unit": "%"}, {"measurement": "viability, T/C", "setting": "second compound 0.1 µM, first compound 1 µM", "value": 63, "unit": "%"}, {"measurement": "viability, T/C", "setting": "second compound 0.316 µM, first compound 0.00316 µM", "value": 81.7, "unit": "%"}, {"measurement": "viability, T/C", "setting": "second compound 0.316 µM, first compound 0.01 µM", "value": 68.9, "unit": "%"}, {"measurement": "viability, T/C", "setting": "second compound 0.316 µM, first compound 0.0316 µM", "value": 62.9, "unit": "%"}, {"measurement": "viability, T/C", "setting": "second compound 0.316 µM, first compound 0.1 µM", "value": 58.5, "unit": "%"}, {"measurement": "viability, T/C", "setting": "second compound 0.316 µM, first compound 0.316 µM", "value": 61.1, "unit": "%"}, {"measurement": "viability, T/C", "setting": "second compound 0.316 µM, first compound 1 µM", "value": 61.8, "unit": "%"}, {"measurement": "viability, T/C", "setting": "second compound 1 µM, first compound 0.00316 µM", "value": 90, "unit": "%"}, {"measurement": "viability, T/C", "setting": "second compound 1 µM, first compound 0.01 µM", "value": 73.5, "unit": "%"}, {"measurement": "viability, T/C", "setting": "second compound 1 µM, first compound 0.0316 µM", "value": 63.1, "unit": "%"}, {"measurement": "viability, T/C", "setting": "second compound 1 µM, first compound 0.1 µM", "value": 57.9, "unit": "%"}, {"measurement": "viability, T/C", "setting": "second compound 1 µM, first compound 0.316 µM", "value": 59.2, "unit": "%"}, {"measurement": "viability, T/C", "setting": "second compound 1 µM, first compound 1 µM", "value": 58.4, "unit": "%"}, {"measurement": "viability, T/C", "setting": "second compound 3.16 µM, first compound 0.00316 µM", "value": 72.7, "unit": "%"}, {"measurement": "viability, T/C", "setting": "second compound 3.16 µM, first compound 0.01 µM", "value": 70.1, "unit": "%"}, {"measurement": "viability, T/C", "setting": "second compound 3.16 µM, first compound 0.0316 µM", "value": 57.4, "unit": "%"}, {"measurement": "viability, T/C", "setting": "second compound 3.16 µM, first compound 0.1 µM", "value": 61.1, "unit": "%"}, {"measurement": "viability, T/C", "setting": "second compound 3.16 µM, first compound 0.316 µM", "value": 53.9, "unit": "%"}, {"measurement": "viability, T/C", "setting": "second compound 3.16 µM, first compound 1 µM", "value": 50, "unit": "%"}, {"measurement": "viability, T/C", "setting": "second compound 10 µM, first compound 0.00316 µM", "value": 48, "unit": "%"}, {"measurement": "viability, T/C", "setting": "second compound 10 µM, first compound 0.01 µM", "value": 49.5, "unit": "%"}, {"measurement": "viability, T/C", "setting": "second compound 10 µM, first compound 0.0316 µM", "value": 43.4, "unit": "%"}, {"measurement": "viability, T/C", "setting": "second compound 10 µM, first compound 0.1 µM", "value": 48.4, "unit": "%"}, {"measurement": "viability, T/C", "setting": "second compound 10 µM, first compound 0.316 µM", "value": 43.7, "unit": "%"}, {"measurement": "viability, T/C", "setting": "second compound 10 µM, first compound 1 µM", "value": 37, "unit": "%"}]}, {"smiles": "CC1(O)CCCC1n1c(=O)c(C(F)F)cc2cnc(NC3CCN(S(C)(=O)=O)CC3)nc21", "note": "(stereo unspecified)", "values": [{"measurement": "viability, T/C", "setting": "compound 0.0316 µM", "value": "100% [middle of 4 runs]"}, {"measurement": "viability, T/C", "setting": "compound 10 µM", "value": "4.01% [middle of 4 runs]"}]}]}
